Patent US20220193253A1, “SLOW-RELEASE CYTOKINE CONJUGATES” (ProLynx LLC, priority 2019, published 2022)

Key:
[1] = target: T1, IL-2Rαβγ (Homo sapiens, UniProt P01589+P14784+P31785); experiment: U2OS cell-based assay kit for IL-2Rαβγ binding (DiscoverX)
T1 construct: host or cells: U2OS
T1 sequence (P01589 22-272): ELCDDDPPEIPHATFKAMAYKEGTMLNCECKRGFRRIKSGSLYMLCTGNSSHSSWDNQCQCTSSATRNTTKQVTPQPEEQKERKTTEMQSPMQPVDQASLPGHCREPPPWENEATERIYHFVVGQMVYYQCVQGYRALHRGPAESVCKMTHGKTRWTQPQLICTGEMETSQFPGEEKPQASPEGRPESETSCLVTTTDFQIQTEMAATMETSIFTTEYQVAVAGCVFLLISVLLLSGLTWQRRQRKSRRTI
T1 sequence (P14784 27-551): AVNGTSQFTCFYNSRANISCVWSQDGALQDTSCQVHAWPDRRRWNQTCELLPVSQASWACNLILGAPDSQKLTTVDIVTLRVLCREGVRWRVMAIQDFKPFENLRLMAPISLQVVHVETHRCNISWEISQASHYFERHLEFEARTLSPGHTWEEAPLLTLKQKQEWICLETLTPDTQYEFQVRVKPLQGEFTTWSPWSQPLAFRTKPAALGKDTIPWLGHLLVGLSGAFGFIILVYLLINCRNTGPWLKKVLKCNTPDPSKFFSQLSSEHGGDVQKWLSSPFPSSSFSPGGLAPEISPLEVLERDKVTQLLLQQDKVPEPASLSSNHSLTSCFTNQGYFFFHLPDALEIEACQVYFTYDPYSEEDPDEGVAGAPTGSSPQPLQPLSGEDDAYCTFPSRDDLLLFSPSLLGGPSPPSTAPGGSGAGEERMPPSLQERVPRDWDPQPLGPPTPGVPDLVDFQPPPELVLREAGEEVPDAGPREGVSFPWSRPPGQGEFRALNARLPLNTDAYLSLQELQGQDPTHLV
T1 sequence (P31785 23-369): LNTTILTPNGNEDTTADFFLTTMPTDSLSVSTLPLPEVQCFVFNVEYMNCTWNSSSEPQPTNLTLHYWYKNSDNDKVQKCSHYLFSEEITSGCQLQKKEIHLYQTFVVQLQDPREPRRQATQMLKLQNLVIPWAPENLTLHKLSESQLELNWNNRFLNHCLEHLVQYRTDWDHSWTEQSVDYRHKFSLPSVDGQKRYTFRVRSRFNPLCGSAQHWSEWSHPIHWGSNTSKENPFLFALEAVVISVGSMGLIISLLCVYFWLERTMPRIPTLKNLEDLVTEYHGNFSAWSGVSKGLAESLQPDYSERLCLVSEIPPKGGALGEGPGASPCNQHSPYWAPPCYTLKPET
Method: (§1) IL-2[N88R,C125S] was prepared by expression in HEK cells. Cell-based receptor binding assays were performed to evaluate the activity of the mutein against the high-affinity αβγ trimeric (Treg) and intermediate affinity βγ dimeric (Teff) forms of the IL-2 receptor (Table 1). The mutein binds only 6-fold poorer than IL-2 to the IL-2Rαβγ but about 900-fold poorer to the IL-2Rβγ.
A U2OS cell-based assay kit for IL-2Rαβγ binding was performed according the manufacturer's instructions (DiscoverX, Part #93-1003E3CP0). Cells were plated at 100 μL (˜10,000 cells/well) in 96 well assay plates and grown for 24 hours at 37° C., 5% CO2. Cells were then treated for 6 hours at 37° C., 5% CO2 with dilution series of either WT IL-2, IL-2 N88R, C125S, or IL-2 N88R, C125S released from microspheres at pH 9.4. Eleven WT IL-2 concentrations were assayed between 2 pg/mL-100 ng/mL (0.1 pM-6 nM). Eleven IL-2 N88R, C125S and released IL-2 N88R, C125S concentrations were assayed between 200 pg/mL-10 μg/mL ([…]-600 nM). Treated cells were incubated with chemiluminescent substrate for 1 hour at ambient temperature in the dark, then luminescence was read with a Spectramax i3 plate reader with 250 ms integration time.

[2] = target: T2, IL-2Rβγ (Homo sapiens, UniProt P14784+P31785); experiment: U2OS cell-based assay kit for IL-2Rβγ binding (DiscoverX); conditions: mutein vs WT IL-2
T2 construct: host or cells: U2OS
T2 sequence (P14784 27-551): T1 sequence (P14784 27-551)
T2 sequence (P31785 23-369): T1 sequence (P31785 23-369)
Method: as §1
A U2OS cell-based assay kit for IL-2Rβγ binding was performed according the manufacturer's instructions (DiscoverX, Part #93-0998E3CP5). Cells were plated at 50 μL (˜5,000 cells/well) in 96 well assay plates and grown for 48 hours at 37° C., 5% CO2. Cells were then treated for 6 hours at 37° C., 5% CO2 with dilution series of either WT IL-2, IL-2 N88R, C125S, or IL-2 N88R, C125S released from microspheres at pH 9.4. Eleven WT IL-2 concentrations were assayed between 17 pg/mL-1 μg/mL (1 pM-61 nM). Eleven IL-2 N88R, C125S concentrations were assayed between 1.7 ng/mL-100 μg/mL ([…]-6 μM). Eleven released remnant IL-2 N88R, C125S concentrations were assayed between 170 pg/mL-10 μg/mL ([…]-600 nM). Treated cells were incubated with chemiluminescent substrate for 1 hour at ambient temperature in the dark, then luminescence was read with a Spectramax i3 plate reader with 250 ms integration time.

[3] = tested on: T-cells in the spleen and islets; experiment: Pharmacodynamics of IL2 and IL2[N88R,C125S] in NOD mice (flow cytometry of spleen and islets); assay type: in vivo; conditions: daily injections 25,000 units for five days
Method: Mice were sacrificed 2 hours after the last injection and the spleen and pancreas were harvested for flow cytometry analysis to measure changes in total number of T-cells and their differentiation in the spleen and islets.

[4] = tested on: CD8+ memory T cells and NK cells in PBMCs; experiment: Pharmacodynamics of [aminopropyl]-RLI released from microsphere conjugate; assay type: in vivo, C57Black mice
Method: The pharmacodynamics of the MS-RLI conjugate (34 μg, 1.5 nmol) was compared to that of empty MSs, and free RLI (2.5 μg, QDx4) in C57Black mice (n=5/group). Blood draws were taken over 13 days and the PBMCs surface stained using general laboratory procedures. Fixation and intracellular staining followed protocols from the eBioscience Foxp3/Transcription Factor Staining Buffer Set (ThermoFisher Scientific). Commercial antibodies used were against NK1.1, CD3, CD8, CD19, CD44 and Ki-67 expressing cells. Stained single cell suspension were analyzed using a LSRII flow cytometer (BD Biosciences) and analyzed using FlowJo cytometry analysis software (TreeStar, Ashland, Oreg.). Cell populations of particular interest were CD8+ memory T cells (CD44^hiCD8+), natural killer (CD3-NK1.1+) cells, proliferating CD8+ memory T cells (CD44^hiCD8+Ki-67+), and proliferating natural killer (CD3-NK1.1+Ki-67+) cells.

[5] = in vivo; cited from earlier work

Fold-change βγ EC50 vs αβγ EC50 (selectivity for IL-2Rαβγ vs IL-2Rβγ) [1]	Fold-change of βγ EC50 vs WT IL-2 (fold poorer binding) [2]	Substance	effect on CD4+ and CD8+ effector/memory T-cells in the spleen [3]	effect on the T-cells in the islets compared to PBS vehicle [3]	day of return of CD44hiCD8+ T cells to baseline levels ([4]; 2.5 μg QDx4)	fold increase in the percentage of NK cells in the PBMCs ([4]; MS-RLI 34 μg single, free RLI 2.5 μg QDx4)	time post treatment at which increase in CD44hiCD8+ T cells was noticeable ([4]; MS-RLI 34 μg single, native RLI 2.5 μg QDx4)	half-life of free RLI [5]
over 3,000 fold	about 900 fold	IL-2 N88R, C125S: IL-2 mutein, SEQ ID No: 3, prepared by expression in HEK cells	little to no effect	little to no effect	–	–	–	–
–	–	RLI: receptor-linked interleukin: fusion protein comprising IL-15 and the sushi-domain of the receptor α-subunit, SEQ ID No: 16	–	–	≤ 7 days	~4 fold	5 days	3 h
